The values below are quoted from earlier work in patent US10881613B2, “Fumarate polymersomes” (UCL BUSINESS LTD, priority 2016, dated 2021).

Each structure is given as a SMILES string.

The conditions of this data set: in vivo.

On to `CC(O)CO` (stereo not shown) [Propylene glycol], for which the “half life (metabolized by the liver)” value is 2 h.
